This passage reports IC50 results from paper PMC10714432 (ACS Pharmacology & Translational Science, 2023).

Broadly, the IC50 is the concentration that inhibits the measured activity by half.

For the experiment, the target named is PDE5A1 (Homo sapiens, UniProt O76074). The experiment can be described thus: cGMP hydrolysis by purified PDE5A1, cGMP Lumit bioluminescent readout. It counts as biochemical.

Regarding `CC(C)Cn1c(=O)n(C)c(=O)c2[nH]cnc21` [IBMX], the midpoint of inhibition, the IC50, lay at 3.8 µM.
